Assay results published in ChEMBL document CHEMBL3244409, “(2,6-Methano-3-benzazocin-11 beta-yl)alkanones. 1. Alkylalkanones: a new series of N-methyl derivatives with novel opiate activity profiles” (1979).

Columns and labels:
Assay type in all cases: functional
[1] = system: Mus musculus; assay: Analgesic activity in sc dosed mouse by acetylcholine writhing test
[2] = system: Rattus norvegicus; assay: Analgesic activity in sc dosed rat assessed as inhibition of phenazocine-induced effect
[3] = system: Rattus norvegicus; assay: Analgesic activity in sc dosed rat by tail flick test
[4] = system: Rattus norvegicus; assay: Analgesic activity in sc dosed rat by intracarotid bradykinin test
[5] = system: Rattus norvegicus; assay: Analgesic activity in sc dosed rat assessed as inhibition of morphine-induced effect
[6] = system: Rattus norvegicus; assay: Analgesic activity in sc dosed rat assessed as inhibition of meperidine-induced effect
[7] = system: Rattus norvegicus; assay: Analgesic activity in rat at 240 mg/kg, sc by tail flick test; details: route subcutaneous
[8] = system: Rattus norvegicus; assay: Analgesic activity in rat at 120 mg/kg, sc by tail flick test; details: route subcutaneous
[9] = system: Mus musculus; assay: Analgesic activity in mouse at 25 mg/kg, sc by acetylcholine writhing test; details: route subcutaneous
[10] = Mus musculus, sc, read-out: ED50
[11] = Rattus norvegicus, Tail, sc, read-out: ED50
[12] = Rattus norvegicus, sc, read-out: ED50

`CC(=O)CC[C@]1(C)C2Cc3ccc(O)cc3[C@@]1(C)CCN2C` (mixture of isomers) gave an ED50 [1, 10] of 0.25 mg/kg and an AD50 [2] of 40 mg/kg.

Compound `CCC(=O)CC[C@]1(C)C2Cc3ccc(O)cc3[C@@]1(C)CCN2C.Cl` (mixture of isomers) has an ED50 [3, 11] of 0.99 mg/kg, an ED50 [1, 10] of 0.18 mg/kg and an AD50 [2] of 1 mg/kg.

`CCCC(=O)CC[C@]1(C)C2Cc3ccc(O)cc3[C@@]1(C)CCN2C.Cl` (mixture of isomers) gave an ED50 [3, 11] of 0.099 mg/kg, an ED50 [4, 12] of 0.019 mg/kg and an ED50 [1, 10] of 0.023 mg/kg. For the same compound, the AD50 [2] was 80 mg/kg.

`CCCCC(=O)CC[C@]1(C)C2Cc3ccc(O)cc3[C@@]1(C)CCN2C.Cl` (mixture of isomers) was tested, and the ED50 [3, 11] was 0.039 mg/kg, the ED50 [4, 12] was 0.012 mg/kg and the ED50 [1, 10] was 0.017 mg/kg. For the same compound, the AD50 [2] was 0.1 mg/kg.

`CCCCCC(=O)CC[C@]1(C)C2Cc3ccc(O)cc3[C@@]1(C)CCN2C.Cl` (mixture of isomers) was tested, and the AD50 [5] was 0.098 mg/kg, the ED50 [3, 11] was 120 mg/kg and the ED50 [4, 12] was 0.043 mg/kg. It also gave an ED50 [1, 10] of 0.24 mg/kg, an AD50 [6] of 0.19 mg/kg and an AD50 [2] of 0.008 mg/kg.

For `CCCCCCC(=O)CC[C@]1(C)C2Cc3ccc(O)cc3[C@@]1(C)CCN2C.Cl` (mixture of isomers), the ED50 [3, 11] was 120 mg/kg, the ED50 [4, 12] was 2.2 mg/kg and the ED50 [1, 10] was 12 mg/kg. It also gave an AD50 [2] of 0.04 mg/kg.

For `CC(C)C(=O)CC[C@]1(C)C2Cc3ccc(O)cc3[C@@]1(C)CCN2C.Cl` (mixture of isomers), the ED50 [3, 11] was 24 mg/kg, the ED50 [4, 12] was 0.12 mg/kg and the ED50 [1, 10] was 0.11 mg/kg. It also gave an AD50 [2] of 80 mg/kg.

For `CC(C)CC(=O)CC[C@]1(C)C2Cc3ccc(O)cc3[C@@]1(C)CCN2C.Cl` (mixture of isomers), the ED50 [3, 11] was 0.067 mg/kg, the ED50 [4, 12] was 0.019 mg/kg and the ED50 [1, 10] was 0.019 mg/kg. It also gave an AD50 [2] of 0.01 mg/kg.

In the case of `CC(C)CCC(=O)CC[C@]1(C)C2Cc3ccc(O)cc3[C@@]1(C)CCN2C.Cl` (mixture of isomers), the AD50 [5] is reported as 0.58 mg/kg, the ED50 [4, 12] is reported as 0.032 mg/kg and the ED50 [1] is reported as 0.074 mg/kg. For the same compound, the AD50 [6] was 0.73 mg/kg, the AD50 [2] was 0.3 mg/kg and the Activity [7] was 47%.

With `CC(C)CCCC(=O)CC[C@]1(C)C2Cc3ccc(O)cc3[C@@]1(C)CCN2C` (mixture of isomers) the ED50 [3, 11] was 120 mg/kg, the ED50 [1, 10] was 5.3 mg/kg and the AD50 [2] was 0.029 mg/kg.

In the case of `COc1ccc2c(c1)[C@@]1(C)CCN(C)C(C2)[C@@]1(C)CCC(C)=O.Cl` (mixture of isomers), the ED50 [1, 10] is reported as 3.5 mg/kg and the Activity [8] is reported as 66%.

Work on `CCC(=O)CC[C@]1(C)C2Cc3ccc(OC)cc3[C@@]1(C)CCN2C.CS(=O)(=O)O` (mixture of isomers) yielded an ED50 [3, 11] of 5.9 mg/kg, an ED50 [1, 10] of 1.9 mg/kg and an AD50 [2] of 1 mg/kg.

Compound `CCCC(=O)CC[C@]1(C)C2Cc3ccc(OC)cc3[C@@]1(C)CCN2C.CS(=O)(=O)O` (mixture of isomers) has an ED50 [3, 11] of 2 mg/kg, an ED50 [1, 10] of 0.89 mg/kg and an AD50 [2] of 80 mg/kg.

`CCCCC(=O)CC[C@]1(C)C2Cc3ccc(OC)cc3[C@@]1(C)CCN2C.Cl` (mixture of isomers) showed an ED50 [3, 11] of 1.35 mg/kg, an ED50 [1, 10] of 0.63 mg/kg and an AD50 [2] of 1 mg/kg.

`CCCCCC(=O)CC[C@]1(C)C2Cc3ccc(OC)cc3[C@@]1(C)CCN2C.Cl` (mixture of isomers) was tested, and the ED50 [3, 11] was 30 mg/kg, the ED50 [1, 10] was 1.5 mg/kg and the AD50 [2] was 10 mg/kg.

`CCCCCCC(=O)CC[C@]1(C)C2Cc3ccc(OC)cc3[C@@]1(C)CCN2C.Cc1ccc(S(=O)(=O)O)cc1` (mixture of isomers) showed an ED50 [3, 11] of 120 mg/kg, an AD50 [2] of 80 mg/kg and an Activity [9] of 20%.

`COc1ccc2c(c1)[C@@]1(C)CCN(C)C(C2)[C@@]1(C)CCC(=O)C(C)C.CS(=O)(=O)O` (mixture of isomers) showed an ED50 [1, 10] of 5 mg/kg, an AD50 [2] of 80 mg/kg and an Activity [8] of 42%.

Compound `COc1ccc2c(c1)[C@@]1(C)CCN(C)C(C2)[C@@]1(C)CCC(=O)CC(C)C.CS(=O)(=O)O` (mixture of isomers) has an ED50 [3, 11] of 4.3 mg/kg, an ED50 [1, 10] of 1 mg/kg and an AD50 [2] of 80 mg/kg.

With `COc1ccc2c(c1)[C@@]1(C)CCN(C)C(C2)[C@@]1(C)CCC(=O)CCC(C)C.Cl` (mixture of isomers) the ED50 [3, 11] was 16 mg/kg, the ED50 [4, 12] was 2.4 mg/kg and the ED50 [1, 10] was 2 mg/kg. It also gave an AD50 [2] of 80 mg/kg.

`COc1ccc2c(c1)[C@@]1(C)CCN(C)C(C2)[C@@]1(C)CCC(=O)CCCC(C)C.Cl` (mixture of isomers) was tested, and the ED50 [1, 10] was 7.5 mg/kg, the AD50 [2] was 80 mg/kg and the Activity [8] was 70%.

`CC(=O)CC[C@]1(C)C2Cc3ccc(O)cc3[C@@]1(C)CCN2C.CS(=O)(=O)O` (mixture of isomers) was tested, and the ED50 [3, 11] was 2.5 mg/kg and the ED50 [4, 12] was 0.19 mg/kg.

For `CCCCCC(=O)CC[C@]1(C)C2Cc3ccc(O)cc3[C@@]1(C)CCN2C.CS(=O)(=O)O` (single isomer, unassigned; (-)), the ED50 [3] was 95 mg/kg, the ED50 [4] was 0.022 mg/kg and the ED50 [1] was 0.19 mg/kg. The AD50 [2] was 0.005 mg/kg.

`CCCCCC(=O)CC[C@]1(C)C2Cc3ccc(O)cc3[C@@]1(C)CCN2C.CS(=O)(=O)O` (stereo in doubt; (+)-3e) gave an ED50 [3, 11] of 95 mg/kg, an ED50 [4] of 50 mg/kg and an ED50 [1] of 11 mg/kg. For the same compound, the AD50 [2] was 80 mg/kg.

`CC(C)CCC(=O)CC[C@]1(C)C2Cc3ccc(O)cc3[C@@]1(C)CCN2C.Cl` (stereo in doubt; (+)-3i) showed an ED50 [3, 11] of 120 mg/kg, an ED50 [1] of 10 mg/kg and an AD50 [2] of 20 mg/kg.

In the case of `CC(C)CCC(=O)CC[C@]1(C)C2Cc3ccc(O)cc3[C@@]1(C)CCN2C.Cl` (stereo in doubt; (-)-3i), the ED50 [1] is reported as 0.016 mg/kg, the AD50 [2] is reported as 0.088 mg/kg and the Activity [8] is reported as 46%.

For `CO[C@@]12CC[C@@]3(C[C@@H]1[C@](C)(O)C(C)(C)C)[C@H]1Cc4ccc(O)c5c4[C@@]3(CCN1CC1CC1)[C@H]2O5` [BUPRENORPHINE], the ED50 [4, 12] was 0.004 mg/kg, the ED50 [1, 10] was 0.059 mg/kg and the AD50 [2] was 0.11 mg/kg. It also gave an Activity [8] of 14%.

With `C[C@H]1[C@H]2Cc3ccc(O)cc3[C@]1(C)CCN2CC1CC1` [CYCLAZOCINE] the AD50 [5] was 0.029 mg/kg, the AD50 [6] was 0.024 mg/kg and the AD50 [2] was 0.028 mg/kg.

`CN1CC[C@]23c4c5ccc(O)c4O[C@H]2[C@@H](O)C=C[C@H]3[C@H]1C5` [MORPHINE] was tested, and the ED50 [3, 11] was 3.9 mg/kg and the ED50 [4, 12] was 2.3 mg/kg.

Work on `C=CCN1CC[C@]23c4c5ccc(O)c4O[C@H]2C(=O)CC[C@@]3(O)[C@H]1C5` [NALOXONE] yielded an AD50 [5] of 0.004 mg/kg, an ED50 [1, 10] of 60 mg/kg and an AD50 [6] of 0.004 mg/kg. The AD50 [2] was 0.008 mg/kg.
